Experiments:
[1] = test system: BT20; test: AlamarBlue cell viability assay, BT20; assay type: cell-based; details: Homo sapiens, BT-20, Mammary
Description: (§1) (A) Inhibitory concentration 50% (IC50) values for compound 43 in the MC cell lines are tabulated, using an AlamarBlue™ cell viability assay as previously described in Pandey V et al., Breast Cancer Res. 2014; 16(5):429. (B) Measured dose-dependent manner effect of compound 43 on the viability of MC cells (left-side, TFF3-high and right, TFF3-low) using AlamarBlue™ viability assay as previously described (ibid). (C) Apoptotic cell death of mammary carcinoma cell lines measured after treatment with 10 μM compound 43 using flow cytometry analysis at 24 hour as described previously in Keerthy H K et al., PloS one. 2014; 9(9):e107118. Annexin V-FITC staining is indicated on the X-axis and PI staining on the Y-axis. […] Acquisition of Annexin V and PI data were represented as percentage (%) in each quadrant. Note: CM, conditioned media; MCF10A and MCF12A, non-transformed immortalized-mammary epithelial cell line. Points are mean of triplicate experiments; bars, ±SD. Statistical significance was assessed by using an unpaired two-tailed Student's t test (P<0.05 was considered as significant) using GraphPad Prism5. […]
(§2) In table 9 IC50 values of compound 43 compound library in several cancer cell lines are tabulated, using an AlamarBlue® cell viability assay as previously described in Pandey V et al., Breast Cancer Res. 2014; 16(5):429. Statistical analysis was assessed by using GraphPad Prism5. […]

[2] = test system: H1975; test: AlamarBlue cell viability assay, H1975; assay type: cell-based; details: Homo sapiens, NCI-H1975, Lung
Experimental: (§3) The human immortalized mammary epithelial cell lines, MCF10A, and MCF12A; and immortalized hepatocellular epithelial cell line, LO2 were obtained from the American Type Culture Collection (ATCC, Rockville, Md.) and were cultured as per ATCC propagation instructions. MC cell lines, MCF7, T47D, BT474, BT20, MDA-MB-361, MDA-MB-436, MDA-MB-468, and MDA-MB-231; endometrial carcinoma cell lines, Ishikawa, ECC1, RL95-2 and AN3; hepatocellular carcinoma cell lines, Hep3B, H2P, and H2M; colon carcinoma cell lines, DLD-1, and Caco-2; and prostate carcinoma cell lines, PC3, LNCaP, and DU145 were obtained from the American Type Culture Collection (ATCC, Rockville, Md.). Pancreatic carcinoma cell lines, AsPC-1 and BxPC-3; Lung carcinoma cell lines, HCC-827, NCI-H1975, HCC-4006, PC-14, and NCI-H1299; and Thyroid carcinoma cell lines HTH83, CAL62, T238, and OGK-M were obtained from Prof. H. Phillip Koeffler's laboratory at The Cancer Science Institute of Singapore, National University of Singapore (NUS). Gastric carcinoma cell lines, AGS, MKN-28, MKN-45, and A2-528 were obtained from Prof. […]
as §2

[3] = test system: OGK-M; test: AlamarBlue cell viability assay, OGK-M; assay type: cell-based; details: Homo sapiens, Thyroid
Experimental: as §3, §2

[4] = test system: MCF-7; test: AlamarBlue cell viability assay, MCF7; assay type: cell-based, human
Description: (A) Inhibitory concentration 50% (IC50) values for compound 43 in the MC cell lines are tabulated, using an AlamarBlue™ cell viability assay as previously described in Pandey V et al., Breast Cancer Res. 2014; 16(5):429. (B) Measured dose-dependent manner effect of compound 43 on the viability of MC cells (left-side, TFF3-high and right, TFF3-low) using AlamarBlue™ viability assay as previously described (ibid). (C) Apoptotic cell death of mammary carcinoma cell lines measured after treatment with 10 μM compound 43 using flow cytometry analysis at 24 hour as described previously in Keerthy H K et al., PloS one. 2014; 9(9):e107118. Annexin V-FITC staining is indicated on the X-axis and PI staining on the Y-axis. […] Acquisition of Annexin V and PI data were represented as percentage (%) in each quadrant. Note: CM, conditioned media; MCF10A and MCF12A, non-transformed immortalized-mammary epithelial cell line. Points are mean of triplicate experiments; bars, ±SD. Statistical significance was assessed by using an unpaired two-tailed Student's t test (P<0.05 was considered as significant) using GraphPad Prism5. Columns are mean of triplicate experiments; bars, ±SD. **P<0.001, *P<0.05.
The human immortalized mammary epithelial cell lines, MCF10A, and MCF12A; and immortalized hepatocellular epithelial cell line, LO2 were obtained from the American Type Culture Collection (ATCC, Rockville, Md.) and were cultured as per ATCC propagation instructions. MC cell lines, MCF7, T47D, BT474, BT20, MDA-MB-361, MDA-MB-436, MDA-MB-468, and MDA-MB-231; endometrial carcinoma cell lines, Ishikawa, ECC1, RL95-2 and AN3; hepatocellular carcinoma cell lines, Hep3B, H2P, and H2M; colon carcinoma cell lines, DLD-1, and Caco-2; and prostate carcinoma cell lines, PC3, LNCaP, and DU145 were obtained from the American Type Culture Collection (ATCC, Rockville, Md.). Pancreatic carcinoma cell lines, AsPC-1 and BxPC-3; Lung carcinoma cell lines, HCC-827, NCI-H1975, HCC-4006, PC-14, and NCI-H1299; and Thyroid carcinoma cell lines HTH83, CAL62, T238, and OGK-M were obtained from Prof. H. Phillip Koeffler's laboratory at The Cancer Science Institute of Singapore, National University of Singapore (NUS). Gastric carcinoma cell lines, AGS, MKN-28, MKN-45, and A2-528 were obtained from Prof. Yoshiaki Ito's laboratory at The Cancer Science Institute of Singapore, NUS. All cell lines were cultured as per ATCC propagation instructions.
The above synthesised compounds were initially evaluated against a range of carcinoma cells using an AlamarBlue™ cell viability assay (using the protocol discussed above). The tested compounds were generally efficacious at reducing the viability of various carcinoma cells compared to vehicle (DMSO) treated cells. Table 8 provides selected IC50 data for certain of the compounds synthesised herein against MCF-7.
In table 9 IC50 values of compound 43 compound library in several cancer cell lines are tabulated, using an AlamarBlue® cell viability assay as previously described in Pandey V et al., Breast Cancer Res. 2014; 16(5):429. Statistical analysis was assessed by using GraphPad Prism5. Note: NV, no value.

[5] = test system: MDA-MB-361; test: AlamarBlue cell viability assay, MDA-MB-361; assay type: cell-based; details: Homo sapiens, Mammary
Description: as §1, §2

[6] = test system: Hep3B; test: AlamarBlue cell viability assay, Hep3B; assay type: cell-based; details: Homo sapiens, Hepatocellular
Experimental: as §3, §2

[7] = test system: Caco-2; test: AlamarBlue cell viability assay, Caco-2; assay type: cell-based; details: Homo sapiens, Colon
Experimental: as §3, §2

[8] = test system: H2M; test: AlamarBlue cell viability assay, H2M; assay type: cell-based; details: Homo sapiens, Hepatocellular
Experimental: as §3, §2

[9] = test system: H1299; test: AlamarBlue cell viability assay, H1299; assay type: cell-based; details: Homo sapiens, NCI-H1299, Lung
Experimental: as §3, §2

[10] = test system: T47D; test: AlamarBlue cell viability assay, T47D; assay type: cell-based; details: Homo sapiens, Mammary
Description: as §1, §2

[11] = test system: MKN-45; test: AlamarBlue cell viability assay, MKN-45; assay type: cell-based; details: Homo sapiens, Gastric
Experimental: as §3, §2

[12] = test system: MDA-MB-436; test: AlamarBlue cell viability assay, MDA-MB-436; assay type: cell-based; details: Homo sapiens, Mammary
Description: as §1, §2

[13] = test system: T238; test: AlamarBlue cell viability assay, T238; assay type: cell-based; details: Homo sapiens, Thyroid
Experimental: as §3, §2

[14] = test system: TFF3-high expressing mammary carcinoma cell (MCF7, BT474, MDA-MB-361); test: Cell viability in 3D Matrigel culture, AlamarBlue (FIG. 4); assay type: cell-based, human; details: cultured 14 days in 3D Matrigel, vs vehicle (DMSO)
Experimental: Cell viability in colonies generated by MCF7, BT474 and MDA-MB-361 cell after exposure with compound 43 or vehicle (DMSO) cultured 14 days in 3D Matrigel using AlamarBlue™ viability assay as previously described in Pandey V et al., Breast Cancer Res. 2014; 16(5):429. Microscopic visualization (right side) of colonies generated by BT474 and MCF7 cells after exposure with compound 43 or vehicle (DMSO) cultured 14 days in 3D Matrigel. On days 5, 8 and 11, colonies were treated with compound 43 or DMSO. Statistical significance was assessed by using an unpaired two-tailed Student's t test (P<0.05 was considered as significant) using GraphPad Prism5.

Cc1cc(-c2ccc(C3C(C#N)=C(N)Oc4c3c(=O)oc3ccccc43)cc2)cnc1F (stereo not shown) [Compound 43, 2-Amino-4-(4-(6-fluoro-5-methylpyridin-3-yl)phenyl)-5-oxo-4H,5H-pyrano[3,2-c]chromene-3-carbonitrile]
IC50 [1]: 468 µM
IC50 [2]: 11.8 µM
IC50 [3]: 411 µM
IC50 ([4]; Homo sapiens, MCF7, MCF-7, AlamarBlue cell viability (Table 8)): 3.21 µM
IC50 ([4]; Homo sapiens, MCF7, Mammary, MCF7): 3.21 µM
IC50 ([4]; MCF-7, AlamarBlue cell viability (Table 8)): 4.51 µM
IC50 [5]: 1.61 µM
IC50 [6]: 8.44 µM
IC50 [7]: 2.84 µM
IC50 [8]: 7.86 µM
IC50 [9]: 18.6 µM
IC50 [10]: 5.24 µM
IC50 [11]: 6.81 µM
IC50 [12]: 396 µM
IC50 [13]: 185 µM
cell viability in Matrigel 3D culture [14]: suppresses cell viability

Reference: US20200147039A1, “COMPOUNDS USEFUL IN INHIBITING HUMAN TREFOIL FACTOR 3” (NATIONAL UNIVERSITY OF SINGAPORE, priority 2017, published 2020)
